In patent US9907737B2, “Composition comprising ferulic acid ethyl ester and aryl alkanol” (L'AIR LIQUIDE, SOCIETE ANONYME POUR L'ETUDE ET …, priority 2013, dated 2018):
Marks after values point to notes of the source that are not given here.

Assays:
[1] = test system: S. aureus ATCC: 6538; test: Bacterial count reduction test (method 1), S. aureus; type: cell-based, Staphylococcus aureus
Experimental: (§1) Method 1: Bacterial Count Reduction Test
(§2) The aim of this bacterial count reduction test is to determine suitable preservatives and reaction times for samples injected in the laboratory.
(§3) Staphylococcus aureus, Escherichia coli or Pseudomonas aeruginosa, Candida albicans, Aspergillus brasiliensis
(§4) From a 24-hour CS-angular agar culture (I subculture) of Staphylococcus aureus/Escherichia coli 24-hour CSL-cultures (II subculture) are created. The incubation is carried out at 37° C. The titer of the bacterial suspension is about 10^9 CFU/ml.
(§5) The titres of the respectively produced test organism suspensions are determined by means of a dilution series in physiological NaCl and recorded.
(§6) The samples are displaced with different concentrations of suitable preservatives. For each test bacterium a dilution series is required. The samples are injected individually with the respective test organism suspension and stirred well:
(§7) 25 g samples=0.1 ml bacterial suspension
(§8) 50 g samples=0.2 ml bacterial suspension.
(§9) After the indicated reaction times the samples are firstly stirred homogenously with a sterile glass rod and then spread onto CSA or SA agar. The bacteria samples are spread onto CSA and incubated for 48 hours at 37° C. The mould and yeast samples are spread onto SA agar and incubated for 48 hours at 37° C. (Candida albicans) and at 25° C. (Aspergillus brasiliensis).

[2] = test system: E. coli ATCC: 11229; test: Bacterial count reduction test (method 1), E. coli; type: cell-based, Escherichia coli; details: o/w cream, initial bacterial count 1.3 × 10^9
Experimental: as §1, §2, §3, §4, §5, §6, §7, §8, §9

[3] = test system: C. albicans ATCC: 10231; test: Bacterial count reduction test (method 1), C. albicans; type: cell-based, Candida albicans
Experimental: as §1, §2, §3
A 4 day old Candida albicans culture on SA-agar (II subculture) is washed with 5 ml physiological NaCl and adjusted according to a barium sulphate standard (cf. DVG Guidelines). The titer of the Candida albicans suspension is 10^8 CFU/ml.
as §5, §6, §7, §8, §9

[4] = test system: A. brasiliensis ATCC: 16404; test: Bacterial count reduction test (method 1), A. brasiliensis; type: cell-based, Aspergillus brasiliensis
Experimental: as §1, §2, §3
A 7 to 14 days old Aspergillus brasiliensis culture on SA agar (25° C.±1° C.) is washed with 5 ml physiological NaCl, filtered by a glass funnel with glass wool and filled with physiological NaCl to 100 ml. The titre of the Aspergillus brasiliensis suspension is about 10^7 CFU/ml.
as §5, §6, §7, §8, §9

[5] = test system: P. aeruginosa ATCC: 9027; test: Bacterial count reduction test (method 1), P. aeruginosa; type: cell-based, Pseudomonas aeruginosa; details: o/w-Lotion, initial bacterial count 1.2 × 10^9
Experimental: as §1, §2, §3, §5, §6, §7, §8, §9

[6] = Water solubility (statement); type: physicochemical
[7] = Antimicrobial effect (preliminary work, general statements); details: preliminary work / general statement
[8] = o/w cream, initial bacterial count 1 × 10^9
[9] = o/w-Lotion, initial bacterial count 2.2 × 10^9
[10] = o/w cream, initial bacterial count 4.1 × 10^8
[11] = o/w-Lotion, initial bacterial count 5.4 × 10^8
[12] = o/w cream, initial bacterial count 1.5 × 10^7
[13] = o/w-Lotion, initial bacterial count 7.7 × 10^7

Row | Compound | Growth of S. aureus ATCC: 6538 after 24 hours [1, 8] | Growth of S. aureus ATCC: 6538 after 72 hours [1, 8] | Growth of S. aureus ATCC: 6538 after 168 hours [1, 8] | Growth of S. aureus ATCC: 6538 after 336 hours [1, 8] | Growth of S. aureus ATCC: 6538 after 24 hours [1, 9] | Growth of S. aureus ATCC: 6538 after 72 hours [1, 9] | Growth of S. aureus ATCC: 6538 after 168 hours [1, 9] | Growth of S. aureus ATCC: 6538 after 336 hours [1, 9] | Growth of E. coli ATCC: 11229 after 24 hours [2] | Growth of E. coli ATCC: 11229 after 72 hours [2] | Growth of E. coli ATCC: 11229 after 168 hours [2] | Growth of E. coli ATCC: 11229 after 336 hours [2] | Growth of C. albicans ATCC: 10231 after 24 hours [3, 10] | Growth of C. albicans ATCC: 10231 after 72 hours [3, 10] | Growth of C. albicans ATCC: 10231 after 168 hours [3, 10] | Growth of C. albicans ATCC: 10231 after 336 hours [3, 10] | Growth of C. albicans ATCC: 10231 after 24 hours [3, 11] | Growth of A. brasiliensis ATCC: 16404 after 24 hours [4, 12] | Growth of A. brasiliensis ATCC: 16404 after 72 hours [4, 12] | Growth of A. brasiliensis ATCC: 16404 after 168 hours [4, 12] | also measured
1 | CCCCC(CC)COC(=O)/C=C/c1ccc(O)c(OC)c1 (centres unmarked) [0.1% ferulic acid-2-ethylhexylester, ferulic acid (2-ethyl hexyl) ester] | ++++ (Massive growth About 10^5) | ++++ (Massive growth About 10^5) | ++++ (Massive growth About 10^5) | +++ (Heavy growth About 10^4) | R (Surface covered About 10^6) | ++++ (Massive growth About 10^5) | ++++ (Massive growth About 10^5) | ++++ (Massive growth About 10^5) | R (Surface covered About 10^6) | ++++ (Massive growth About 10^5) | R (Surface covered About 10^6) | R (Surface covered About 10^6) | ++++ (Massive growth About 10^5) | ++++ (Massive growth About 10^5) | ++++ (Massive growth About 10^5) | ++++ (Massive growth About 10^5) | R (Surface covered About 10^6) | R (Surface covered About 10^6) | ++++ (Massive growth About 10^5) | ++++ (Massive growth About 10^5) | Growth of C. albicans ATCC: 10231 after 72 hours [3, 11]: R (Surface covered About 10^6); Growth of C. albicans ATCC: 10231 after 168 hours [3, 11]: ++++ (Massive growth About 10^5); Growth of C. albicans ATCC: 10231 after 336 hours [3, 11]: ++++ (Massive growth About 10^5); Growth of A. brasiliensis ATCC: 16404 after 336 hours [4, 12]: ++++ (Massive growth About 10^5); Growth of A. brasiliensis ATCC: 16404 after 24 hours [4, 13]: ++++ (Massive growth About 10^5); Growth of A. brasiliensis ATCC: 16404 after 72 hours [4, 13]: ++++ (Massive growth About 10^5); Growth of A. brasiliensis ATCC: 16404 after 168 hours [4, 13]: ++++ (Massive growth About 10^5); Growth of A. brasiliensis ATCC: 16404 after 336 hours [4, 13]: ++++ (Massive growth About 10^5); Growth of P. aeruginosa ATCC: 9027 after 24 hours [5]: +++ (Heavy growth About 10^4); Growth of P. aeruginosa ATCC: 9027 after 72 hours [5]: ++++ (Massive growth About 10^5); Growth of P. aeruginosa ATCC: 9027 after 168 hours [5]: ++++ (Massive growth About 10^5); Growth of P. aeruginosa ATCC: 9027 after 336 hours [5]: ++++ (Massive growth About 10^5)
2 | CCOC(=O)/C=C/c1ccc(O)c(OC)c1 [0.1% ferulic acid-ethyl ester, ferulic acid ethyl ester] | ++++ (Massive growth About 10^5) | R (Surface covered About 10^6) | R (Surface covered About 10^6) | ++++ (Massive growth About 10^5) | ++++ (Massive growth About 10^5) | ++++ (Massive growth About 10^5) | +++ (Heavy growth About 10^4) | +++ (Heavy growth About 10^4) | R (Surface covered About 10^6) | R (Surface covered About 10^6) | ++++ (Massive growth About 10^5) | R (Surface covered About 10^6) | R (Surface covered About 10^6) | R (Surface covered About 10^6) | R (Surface covered About 10^6) | R (Surface covered About 10^6) | ++++ (Massive growth About 10^5) | ++++ (Massive growth About 10^5) | ++++ (Massive growth About 10^5) | ++++ (Massive growth About 10^5) | Growth of C. albicans ATCC: 10231 after 72 hours [3, 11]: ++++ (Massive growth About 10^5); Growth of C. albicans ATCC: 10231 after 168 hours [3, 11]: ++++ (Massive growth About 10^5); Growth of C. albicans ATCC: 10231 after 336 hours [3, 11]: ++++ (Massive growth About 10^5); Growth of A. brasiliensis ATCC: 16404 after 336 hours [4, 12]: +++ (Heavy growth About 10^4); Growth of A. brasiliensis ATCC: 16404 after 24 hours [4, 13]: ++ (Moderate growth About 10^3); Growth of A. brasiliensis ATCC: 16404 after 72 hours [4, 13]: +++ (Heavy growth About 10^4); Growth of A. brasiliensis ATCC: 16404 after 168 hours [4, 13]: +++ (Heavy growth About 10^4); Growth of A. brasiliensis ATCC: 16404 after 336 hours [4, 13]: ++++ (Massive growth About 10^5); Growth of P. aeruginosa ATCC: 9027 after 24 hours [5]: ++++ (Massive growth About 10^5); Growth of P. aeruginosa ATCC: 9027 after 72 hours [5]: ++++ (Massive growth About 10^5); Growth of P. aeruginosa ATCC: 9027 after 168 hours [5]: ++++ (Massive growth About 10^5); Growth of P. aeruginosa ATCC: 9027 after 336 hours [5]: ++++ (Massive growth About 10^5); Water solubility, in words [6]: poor water solubility; Antimicrobial effect, in words [7]: much weaker antimicrobial effect than ferulic acid itself
3 | OCCCc1ccccc1 [0.75% 3-phenyl-propanol-1, 3-phenyl-1-propanol] | ++++ (Massive growth About 10^5) | ++++ (Massive growth About 10^5) | +++ (Heavy growth About 10^4) | – | – | – | – | – | ++ (Moderate growth About 10^3) | – | – | – | ++++ (Massive growth About 10^5) | ++++ (Massive growth About 10^5) | + (Slight growth About 10^2) | – | – | ++++ (Massive growth About 10^5) | +++ (Heavy growth About 10^4) | + (Slight growth About 10^2) | Antimicrobial effect, in words [7]: good anti-microbial effect
